Results on three compounds are retold here after US11435363B2, “Relevance of achieved levels of markers of systemic inflammation following treatment” (The Brigham and Women's Hospital, Inc., priority 2004, dated 2022).

The structures appear in SMILES notation.

The subject of one assay is CRP. Particulars: for median CRP level at day 30 / median CRP level at end of study: atorvastatin 80 mg/day or pravastatin 40 mg/day orally; for median CRP level at day 30 / median CRP level at end of study / proportion of treated patients who achieved CRP levels below 2.0 at day 30: P<0.001; for median CRP level at end of study: end of study (mean 24 months); for proportion of treated patients who achieved CRP levels below 2.0 at day 30: atorvastatin 80 mg or pravastatin 40 mg.

The next assay relates to LDLC. In words: PROVE IT-TIMI 22: LDLC levels on statin therapy. The class given is in vivo, human. Particulars: for proportion of allocated patients who achieved an LDLC goal of <70 mg/dL: day 30, atorvastatin 80 mg or pravastatin 40 mg, P<0.001.
Assay [1] deals with acute coronary syndrome patients. Particulars: overall trial result, reference (7); cited from earlier work.
Assay [2] has the same test system. In words: PROVE IT-TIMI 22: recurrent myocardial infarction or coronary death after day 30. It counts as in vivo, human. Particulars: for recurrent event rate, achieved LDLC <70 mg/dL and achieved CRP greater than 2.0 mg/L / recurrent event rate, achieved LDLC <70 mg/dL and achieved CRP less than 2.0 mg/L: recurrent myocardial infarction or coronary death, P for difference between agents=0.7.
Description: (§1) In total, 4,162 patients who had been hospitalized within the preceding 10 days for acute coronary syndrome and provided written informed consent were enrolled at 349 sites in eight countries. Approximately two-thirds had acute myocardial infarction and the remainder had high-risk unstable angina.
(§2) For this analysis, we defined achieved LDLC and achieved CRP levels as those values obtained at the 30 day follow-up, a period of time adequate for the effect of statin therapy to be seen for both LDLC and CRP and a time when any residual effects of ischemia on each parameter would no longer be evident. Of the total cohort, 3,745 participants (90.0 percent) were alive and free of a recurrent event at day 30 and underwent evaluation for both LDLC and CRP at that time. All laboratory measurements were made in core facilities and a validated assay for high sensitivity CRP used (Denka Seiken).
(§3) Spearman correlation coefficients were used to evaluate the relationship between achieved LDLC and achieved CRP. We then used a multi-stage process to address the impact of achieved LDLC and achieved CRP levels on rates of recurrent myocardial infarction or fatal coronary events that occurred after day 30 in the study. First, we divided the study population into increasing quartiles of achieved LDLC and achieved CRP and sought evidence that these levels were associated with increased risk of recurrent myocardial infarction or coronary death, both in age-adjusted analyses and after further adjustment for gender, smoking status (current/non-smoker), diabetes, body mass index (kg/m^2), and history of hypertension. […] To address the relative impact of achieved CRP across LDLC strata, we repeated this process after dividing the study cohort into four groups on the basis of achieved LDLC levels and achieved CRP levels above or below the respective values of 70 mg/dL and 2.0 mg/L. A test for trend across groups was performed assigning a score of 0 to those with low levels of both, a score of 1 to the two intermediate groups, and a score of 2 to those with high levels of both. Similar analyses were performed after stratification of the study group according to atorvastatin or pravastatin allocation. Estimates of hazard ratios were obtained using Cox proportional-hazards models.

Description for CRP: as §1, §2, §3
Description for LDLC: as §1, §2
Spearman correlation coefficients were used to evaluate the relationship between achieved LDLC and achieved CRP. We then used a multi-stage process to address the impact of achieved LDLC and achieved CRP levels on rates of recurrent myocardial infarction or fatal coronary events that occurred after day 30 in the study. First, we divided the study population into increasing quartiles of achieved LDLC and achieved CRP and sought evidence that these levels were associated with increased risk of recurrent myocardial infarction or coronary death, both in age-adjusted analyses and after further adjustment for gender, smoking status (current/non-smoker), diabetes, body mass index (kg/m^2), and history of hypertension. […] To address the relative impact of achieved CRP across LDLC strata, we repeated this process after dividing the study cohort into four groups on the basis of achieved LDLC levels and achieved CRP levels above or below the respective values of 70 mg/dL and 2.0 mg/L. A test for trend across groups was performed assigning a score of 0 to those with low levels of both, a score of 1 to the two intermediate groups, and a score of 2 to those with high levels of both. […]

For `CC(C)c1c(C(=O)Nc2ccccc2)c(-c2ccccc2)c(-c2ccc(F)cc2)n1CC[C@@H](O)C[C@@H](O)CC(=O)O` [atorvastatin], in the assay on CRP, the “median CRP level at day 30” value is recorded as 1.6 mg/L, the “median CRP level at end of study” value is reported as 1.3 mg/1 and the “proportion of treated patients who achieved CRP levels below 2.0 at day 30” value is given as 57.5%. The “LDLC levels compared with the pravastatin group” value in the assay with LDLC (day 30, 4 months and end of study, identical at randomization) was “significantly lower”. Moreover, the “proportion of allocated patients who achieved an LDLC goal of <70 mg/dL” value with LDLC is 72.3%. Also, the “overall clinical outcome in the PROVE IT-TIMI 22 trial” value in assay [1] is on record as “superior to pravastatin overall”. Also, the “fully adjusted hazard ratio for atorvastatin vs pravastatin, clinical outcomes” value in assay [2] (after accounting for achieved LDLC and achieved CRP, 95% CI 0.75 to 1.34, P=0.9) was determined as 1.00. Besides, in assay [2], the “recurrent event rate, achieved LDLC <70 mg/dL and achieved CRP greater than 2.0 mg/L” value is 3.1 per 100 person-years; the “recurrent event rate, achieved LDLC <70 mg/dL and achieved CRP less than 2.0 mg/L” value was found to be 2.3 per 100 person-years.
Turning to `COc1c(N2CCNC(C)C2)c(F)cc2c(=O)c(C(=O)O)cn(C3CC3)c12` (stereo not shown) [gatifloxicin], the “effect on CRP levels” value in the assay with CRP (gatifloxicin versus placebo allocation in this population) is “no significant effect on CRP levels”.
For the compound `CC[C@H](C)C(=O)O[C@H]1C[C@H](O)C=C2C=C[C@H](C)[C@H](CC[C@@H](O)C[C@@H](O)CC(=O)O)[C@H]21` [pravastatin], in the assay on CRP, the “median CRP level at day 30” value turned out to be 2.3 mg/L, the “median CRP level at end of study” value was determined as 2.1 mg/1 and the “proportion of treated patients who achieved CRP levels below 2.0 at day 30” value turned out to be 44.9%. Moreover, in the assay on LDLC, the “proportion of allocated patients who achieved an LDLC goal of <70 mg/dL” value is 21.7%. In assay [2], the “recurrent event rate, achieved LDLC <70 mg/dL and achieved CRP greater than 2.0 mg/L” value came to 3.4 per 100 person-years; the “recurrent event rate, achieved LDLC <70 mg/dL and achieved CRP less than 2.0 mg/L” value is on record as 2.5 per 100 person-years.
